From patent US8329703B2, “Pyrazole compounds” (XTL Biopharmaceuticals Ltd., priority 2005, dated 2012)
Where two headings read alike, the source gives them in different places.

Key:
[1] = tested on: HCV RNA (HCV Replicon) in Huh-Luc-Neo cells; assay: HCV Replicon RNA Assay (Taqman quantitative PCR); type: cell-based; settings: Hepatitis C virus, 48 h, 2 compound treatments over 48 h, no unit printed in table (b307 gives IC50s in μM)
Description: (§1) The identification of inhibitors of HCV replication and/or proliferation has been facilitated by the development of a cell based system to study HCV replication and assay for HCV inhibitors. Inhibition of HCV replication may be performed using the HCV Replicon Assay developed in the laboratories of Bartenschlager (Lohman et al, Science 285, 110-113, 1999) and Rice (Blight et al, Science 290, 1972-1974, 2000). The assay is performed using the Huh-Luc-Neo cell line (Lohman et al, Science 285, 110-113, 1999). Huh-Luc-Neo cells are a human hepatoma cell line (Huh-7) stably expressing a bi-cistronic subgenomic replicon containing the HCV IRES in which the […] of HCV had been deleted and replaced by a construct containing sequences coding for the firefly luciferase reporter gene, the neomycin selectable marker and the EMCV IRES to direct expression of a truncated HCV genome expressing the […] NS3, NS4A, NS4B, NS5A, and NS5B. HCV targets through which inhibitors could act to inhibit replication include the NS3 protease, the helicase/ATPase, NS5A, the NS5B-RNA dependent RNA polymerase, and the HCV IRES.
(§2) Expression of HCV IRES driven luciferase reporter activity and HCV RNA is measured to obtain indirect and direct measures of replication of HCV RNA respectively. Inhibitors of HCV replication and/or proliferation are determined by initially identifying molecules that inhibit expression of the HCV IRES driven luciferase reporter in this HCV Replicon Luciferase Assay. Cell viability assays and control cell based luciferase assays are then run on hits identified in the HCV Replicon Luciferase Assay to eliminate cytoxic compounds and non-specific compounds which act by inhibiting the luciferase enzyme.
(§3) Day 0, Cell Seeding and Compound Treatment: Huh-Luc-Neo Cells are seeded at 25,000/well in an opaque-walled 96 plate with Growth Medium (DMEM phenol red free+PS+2 mM glutamine; 100 μl/well). The compounds to be tested are added to the experimental wells (10 μl/well at 10× assay concentration) and the cells are then incubated (5% CO2, 37° C.).
Day 1, Media Change and Compound Treatment: 24 hours after the initial compound treatment the cell culture media is aspirated from the wells and fresh Growth Medium is added (DMEM phenol red free+PS+2 mM glutamine; 100 μl/well). The compounds to be tested are then added to the appropriate experimental wells (10 μl/well at 10× assay concentration) and the cells are then incubated (5% CO2, 37° C.) for an additional 24 hrs.
Day 2, RNA Isolation and cDNA Synthesis: The cells are washed with 1× Phosphate Buffered Saline (PBS) once.
(§4) Day 3, Quantitative PCR Based Measurement of HCV RNA (Taqman Assay): Quantitative PCR analysis to measure HCV RNA expression from cDNA synthesized on Day 2 is performed using the ABI 9700 HT Sequence Detection System (Applied Biosystems) as previously described (Lohman et al, Science 285, 110-113, 1999). The data is analyzed and IC50s are determined using GraphPad Prism 4 software. Hits validated in the Replicon RNA Assay have IC50s<8.0 μM and show <30% inhibition of Cell Viability at a compound concentration of 50 μM (Cell Titer Glow Assay, cell viability assay conditions identical to HCV Replicon RNA Assay conditions).

[2] = tested on: HCV Replicon (HCV IRES driven luciferase reporter) in Huh-Luc-Neo cells; assay: HCV Replicon Luciferase Assay; type: cell-based; settings: 48 h, Huh-Luc-Neo cells, no unit printed in table (b301 gives IC50s in μM), read-out: Luciferase IC50
Description: as §1, §2
as §3, with “C.) for 48 h.” for “C.).”
(§5) Day 2, Reagent Preparation and Luciferase Assay: The Bright-Glo Luciferase Assay Buffer (Promega) is thawed and equilibrated to room temperature prior to use. The lyophilized Bright-Glo Luciferase Assay Substrate is equilibrated to room temperature prior to use. 10 ml of Bright-Glo Luciferase Assay Buffer is transferred to 1 vial of Bright-Glo Luciferase Assay Substrate bottle and mixed by gently with a Vortex. 100 ul of Bright-Glo Luciferase Assay reagent (Bright-Glo Luciferase Assay Buffer+Bright-Glo Luciferase Assay Substrate Mixture) is added to each well. The well contents are mixed for 5 min. on an orbital shaker at room temperature to induce cell lysis and the luminescence is then measured using a luminometer. The data is analyzed and IC50s are determined using GraphPad Prism 4 software. Hits validated in the Replicon Luciferase assay have IC50s<8.0 μM and show <30% inhibition of Cell Viability at a compound concentration of 100 μM (Cell Titer Glow Assay, cell viability assay conditions identical to HCV Replicon Luciferase Assay conditions).

Huh-Luc-Neo cells = assay: Cell Titer-Glo Cell Viability Assay; type: cell-based, human; settings: for Toxicity % Inhibition at 50 μM (2 doses): inhibition of cell viability at 50 μM, conditions identical to HCV Replicon RNA Assay; for Toxicity % Inhibition at 100 μM (1 dose): inhibition of cell viability at 100 μM, conditions identical to HCV Replicon Luciferase Assay (48 h)
Description: as §5, §4
Day 0, Cell Seeding and Compound Treatment: Huh-Luc-Neo Cells are seeded at 25,000/well in an opaque-walled 96 plate with Growth Medium (DMEM phenol red free+PS+2 mM glutamine; 100 ul/well).
Day 2, Reagent Preparation and Assay: The CellTiter-Glo Buffer is thawed and equilibrated to room temperature prior to use. The lyophilized CellTiter-Glo Substrate is equilibrated to room temperature prior to use. 10 ml of CellTiter-Glo Buffer is transferred to 1 vial of CellTiter-Glo Substrate and mixed by gently with a Vortex. 100 μl of CellTiter-Glo Assay reagent (CellTiter-Glo Buffer+CellTiter-Glo Substrate Mixture) is added to each well. The well contents are mixed for 5 min. on an orbital shaker at room temperature to induce cell lysis and the luminescence is then measured using a luminometer.

Row | SMILES | IC50 [1] [µM] | IC50 ([2]; Hepatitis C virus) [µM] | Toxicity % Inhibition at 50 μM (2 doses) (Huh-Luc-Neo cells) [%] | Toxicity % Inhibition at 100 μM (1 dose) (Huh-Luc-Neo cells) [%] | IC50 [2] [µM]
1 | Cn1nc(-c2ccccc2O)c(C#CCCCC#N)c1-c1ccccc1 [VQ_30716] | 0.11 | 3.96 | 6.8 | 13.7 | –
2 | CCCCCC#Cc1cn(C)nc1-c1cc(Cl)ccc1O [VQ_23324] | 0.03 | 5.51 | 8.8 | 39.8 | –
3 | Cn1cc(C#CC2CC2)c(-c2cc(Br)ccc2O)n1 [VQ_34432] | 0.82 | 11.5 | 8.2 | 45.5 | –
4 | Cn1cc(C#CC(C)(C)C)c(-c2cc([N+](=O)[O-])ccc2NCc2c(Cl)cccc2Cl)n1 [VQ_36886] | – | 0.19 | – | 12.6 | –
5 | Cn1cc(C#CC(C)(C)C)c(-c2cc(NC(=O)c3cccc(Cl)c3)ccc2O)n1 [VQ_35559] | 1.98 | 9.5 | 15.8 | 24.2 | –
6 | Cn1cc(C#Cc2ccc(N)cc2)c(-c2cc(Cl)ccc2O)n1 [VQ_23720] | 0.3 | 1.28 | 32.6 | 49.2 | –
7 | Cn1cc(C#CC(C)(C)C)c(-c2cc([N+](=O)[O-])ccc2NCc2c(F)c(F)cc(F)c2F)n1 [VQ_36887] | – | 0.06 | – | 18.7 | –
8 | Cc1ccc(O)c(-c2nn(C)cc2C#CC2=CCCCC2)c1 [VQ_23307] | 8.1 | 7.25 | 14.8 | 44.8 | –
9 | C=CCNc1ccc([N+](=O)[O-])cc1-c1nn(C)cc1C#CC(C)(C)C [VQ_36658] | 0.4 | 0.04 | 38.8 | 21.8 | –
10 | CCCCCCNc1ccc([N+](=O)[O-])cc1-c1nn(C)cc1C#CC(C)(C)C [VQ_36663] | 0.75 | – | 23.8 | 15.5 | –
11 | Cn1cc(C#CC(C)(C)C)c(-c2cc([N+](=O)[O-])ccc2NC(=O)c2ccccc2C(F)(F)F)n1 [VQ_36906] | – | 2.69 | – | 14.0 | –
12 | Cc1ccc(O)c(-c2nn(C)cc2C#CC(C)(C)C)c1 [VQ_23310] | 1.15 | 7.21 | 7.1 | 33.3 | –
13 | Cn1cc(C#CC(C)(C)C)c(-c2cc([N+](=O)[O-])ccc2NC(=O)COc2ccccc2)n1 [VQ_36908] | – | – | – | 22.7 | 1.72
14 | Cn1cc(C#CC(C)(C)C)c(-c2cc(C#Cc3ccc(Cl)cc3)ccc2O)n1 [VQ_34394] | 1.07 | 4.8 | 24.5 | 31.8 | –
